≈ marks a conversion by molar mass, not a printed value.
Columns and labels:
[1] = test system: Staphylococcus aureus-SMITH (GC 4543); assay: acute lethal infection in mice; assay type: in vivo; details: acute lethal infection, female CD-1 mice, intraperitoneal challenge, intravenous 30 min. after infection, 7 day survival
Description: Methods for in Vivo Antibacterial Evaluation
The therapeutic effects of glycopeptide antibiotics of Formula I are determined against acute lethal infections with S. aureus (strain Smith), a penicillin resistant strain of S. pneumoniae (strain GC 1894), and a vancomycin resistant strain of E. fecalis (strain GC 6189 and GC 2246). Female mice, CD-1 (Charles River Laboratories), 20+/−2 gm, are challenged by intraperitoneal injection of sufficient bacteria (suspended in /trypticase Soy Broth or hog gastric mucin) to kill non-treated controls within 24-48 hr. Antibacterial agents, contained in 0.2 mL of saline or 5% dextrose solution, are administered intravenously 30 min. after infection. Five mice are treated at each dose level. The 7 day survival ratios from 3 separate tests are pooled for calculation of median effective dose (ED50).

[2] = test system: Streptococcus sp.; assay: in vitro antibacterial evaluation, MIC by broth dilution; assay type: cell-based; details: broth dilution, 18 hours at 35° C.
In short: (§1)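 MIC = lowest antibiotic concentration preventing visible growth; inoculum 5×10^5 CFU/mL; drug range 64-0.06 μg/mL; Muller-Hinton II […]; NCCLS M7-A2 guidance.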

[3] = test system: Escherichia coli; assay: as above; assay type: cell-based; details: 18 hours at 35° C.
In short: as §1

[4] = test system: Staphylococcus sp.; assay: as above; assay type: cell-based; details: broth dilution, 18 hours at 35° C.
In short: as §1

[5] = test system: Enterococcus sp.; assay: as above; assay type: cell-based; details: broth dilution, 18 hours at 35° C.
In short: as §1

COc1ccc(CC2OCC3OC(OC4C(CO)OC(Oc5ccc(CC6NC(=O)C(C(C)c7ccccc7)NC(=O)CNC(=O)C(CO)NC(=O)C(C(O)C7CNC(=N)N7C7OC(CO)C(O)C(O)C7O)NC(=O)C(C(O)C7CNC(=N)N7)NC6=O)cc5)C(O)C4O)C(O)C(O)C3O2)cc1 (stereo not drawn) [Example 103, Cyco[glycyl-β-methylphenylalanyl-O-[4-O-[4,6-O-(4-methoxyphenethylidene)hexopyranosyl]-hexopyranosyl]tyrosyl-3-(2-iminoimidazolidin-4-yl)seryl-3-(3-hexopyranosyl-2-iminoimidazolidin-4-yl)serylseryl]]
median effective dose (ED50), Staphylococcus aureus-SMITH (GC 4543) [1]: 0.28 mg/kg | MIC Streptococcus agalactiae (GC 4564) ([2]; Streptococcus agalactiae (GC 4564)): 0.5 µg/mL (≈ 0.35 µM) | MIC Streptococcus pneumoniae (ATCC 6301) ([2]; Streptococcus pneumoniae (ATCC 6301)): 0.12 µg/mL (≈ 0.0841 µM) | MIC Streptococcus pneumoniae (GC 1894) ([2]; Streptococcus pneumoniae (GC 1894)): 0.12 µg/mL (≈ 0.0841 µM) | MIC Streptococcus pneumoniae (GC 4565) ([2]; Streptococcus pneumoniae (GC 4565)): 0.12 µg/mL (≈ 0.0841 µM) | MIC Streptococcus pyogenes (GC 4563) ([2]; Streptococcus pyogenes (GC 4563)): 0.25 µg/mL (≈ 0.175 µM) | MIC Streptococcus pneumoniae (ATCC 6301) ([2]; strain ATCC 6301): 0.12 µg/mL (≈ 0.0841 µM) | MIC Streptococcus pneumoniae (GC 1894) ([2]; strain GC 1894): 0.12 µg/mL (≈ 0.0841 µM) | MIC Streptococcus pyogenes (GC 4563) ([2]; strain GC 4563): 0.25 µg/mL (≈ 0.175 µM) | MIC Streptococcus agalactiae (GC 4564) ([2]; strain GC 4564): 0.5 µg/mL (≈ 0.35 µM) | MIC Streptococcus pneumoniae (GC 4565) ([2]; strain GC 4565): 0.12 µg/mL (≈ 0.0841 µM) | MIC Escherichia coli (ATCC 25922) ([3]; strain ATCC 25922): 64 µg/mL (≈ 44.8 µM) | MIC Escherichia coli (GC 4559) ([3]; strain GC 4559): 64 µg/mL (≈ 44.8 µM) | MIC Escherichia coli (GC 4560) ([3]; strain GC 4560): 1 µg/mL (≈ 0.701 µM) | MIC Coagulase Negative Staphylococcus (GC 4547) [4]: 2 µg/mL (≈ 1.4 µM) | MIC Coagulase Negative Staphylococcus (GC 4548) [4]: 1 µg/mL (≈ 0.701 µM) | MIC Coagulase Negative Staphylococcus (GC 4549) [4]: 1 µg/mL (≈ 0.701 µM) | MIC Coagulase Negative Staphylococcus (GC 4551) [4]: 2 µg/mL (≈ 1.4 µM) | MIC Coagulase Negative Staphylococcus (GC 6257) [4]: 1 µg/mL (≈ 0.701 µM) | MIC Staphylococcus aureus (ATCC 29213) [4]: 2 µg/mL (≈ 1.4 µM) | MIC Staphylococcus aureus (GC 1131) [4]: 2 µg/mL (≈ 1.4 µM) | MIC Staphylococcus aureus (GC 3051) [4]: 1 µg/mL (≈ 0.701 µM) | MIC Staphylococcus aureus (GC 3053) [4]: 2 µg/mL (≈ 1.4 µM) | MIC Staphylococcus aureus (GC 4541) [4]: 2 µg/mL (≈ 1.4 µM) | MIC Staphylococcus aureus (GC 4542) [4]: 2 µg/mL (≈ 1.4 µM) | MIC Staphylococcus aureus (GC 4544) [4]: 2 µg/mL (≈ 1.4 µM) | MIC Staphylococcus aureus (GC 4545) [4]: 1 µg/mL (≈ 0.701 µM) | MIC Staphylococcus aureus-SMITH (GC 4543) [4]: 1 µg/mL (≈ 0.701 µM) | MIC Staphylococcus haemolyticus (GC 4546) [4]: 1 µg/mL (≈ 0.701 µM) | MIC Staphylococcus haemolyticus (GC 4546) ([4]; strain GC 4546): 1 µg/mL (≈ 0.701 µM) | MIC Coagulase Negative Staphylococcus (GC 4547) ([4]; strain GC 4547): 2 µg/mL (≈ 1.4 µM) | MIC Coagulase Negative Staphylococcus (GC 4548) ([4]; strain GC 4548): 1 µg/mL (≈ 0.701 µM) | MIC Coagulase Negative Staphylococcus (GC 4549) ([4]; strain GC 4549): 1 µg/mL (≈ 0.701 µM) | MIC Coagulase Negative Staphylococcus (GC 4551) ([4]; strain GC 4551): 2 µg/mL (≈ 1.4 µM) | MIC Coagulase Negative Staphylococcus (GC 6257) ([4]; strain GC 6257): 1 µg/mL (≈ 0.701 µM) | MIC Staphylococcus aureus-SMITH (GC 4543) ([4]; strain SMITH GC 4543): 1 µg/mL (≈ 0.701 µM) | MIC Staphylococcus aureus (ATCC 29213) ([4]; strain ATCC 29213): 2 µg/mL (≈ 1.4 µM) | MIC Staphylococcus aureus (GC 1131) ([4]; strain GC 1131): 2 µg/mL (≈ 1.4 µM) | MIC Staphylococcus aureus (GC 3051) ([4]; strain GC 3051): 1 µg/mL (≈ 0.701 µM) | MIC Staphylococcus aureus (GC 3053) ([4]; strain GC 3053): 2 µg/mL (≈ 1.4 µM) | MIC Staphylococcus aureus (GC 4541) ([4]; strain GC 4541): 2 µg/mL (≈ 1.4 µM) | MIC Staphylococcus aureus (GC 4542) ([4]; strain GC 4542): 2 µg/mL (≈ 1.4 µM) | MIC Staphylococcus aureus (GC 4544) ([4]; strain GC 4544): 2 µg/mL (≈ 1.4 µM) | MIC Staphylococcus aureus (GC 4545) ([4]; strain GC 4545): 1 µg/mL (≈ 0.701 µM) | MIC Enterococcus avium (GC 4558) ([5]; Enterococcus avium (GC 4558)): 8 µg/mL (≈ 5.6 µM) | MIC Enterococcus faecalis (ATCC 29212) ([5]; Enterococcus faecalis (ATCC 29212)): 4 µg/mL (≈ 2.8 µM) | MIC Enterococcus faecalis (GC 2242) ([5]; Enterococcus faecalis (GC 2242)): 4 µg/mL (≈ 2.8 µM) | MIC Enterococcus faecalis (GC 2691) ([5]; Enterococcus faecalis (GC 2691)): 8 µg/mL (≈ 5.6 µM) | MIC Enterococcus faecalis (GC 3059) ([5]; Enterococcus faecalis (GC 3059)): 8 µg/mL (≈ 5.6 µM) | MIC Enterococcus faecalis (GC 4552) ([5]; Enterococcus faecalis (GC 4552)): 8 µg/mL (≈ 5.6 µM) | MIC Enterococcus faecalis (GC 4553) ([5]; Enterococcus faecalis (GC 4553)): 8 µg/mL (≈ 5.6 µM) | MIC Enterococcus faecalis (GC 4554) ([5]; Enterococcus faecalis (GC 4554)): 8 µg/mL (≈ 5.6 µM) | MIC Enterococcus faecalis (GC 6189) ([5]; Enterococcus faecalis (GC 6189)): 4 µg/mL (≈ 2.8 µM) | MIC Enterococcus faecium (GC 2243) ([5]; Enterococcus faecium (GC 2243)): 4 µg/mL (≈ 2.8 µM) | MIC Enterococcus faecium (GC 4556) ([5]; Enterococcus faecium (GC 4556)): 4 µg/mL (≈ 2.8 µM) | MIC Enterococcus faecium (GC 4557) ([5]; Enterococcus faecium (GC 4557)): 2 µg/mL (≈ 1.4 µM) | MIC Enterococcus faecalis (ATCC 29212) ([5]; strain ATCC 29212): 4 µg/mL (≈ 2.8 µM) | MIC Enterococcus faecalis (GC 2242) ([5]; strain GC 2242): 4 µg/mL (≈ 2.8 µM) | MIC Enterococcus faecium (GC 2243) ([5]; strain GC 2243): 4 µg/mL (≈ 2.8 µM) | MIC Enterococcus faecalis (GC 2691) ([5]; strain GC 2691): 8 µg/mL (≈ 5.6 µM) | MIC Enterococcus faecalis (GC 3059) ([5]; strain GC 3059): 8 µg/mL (≈ 5.6 µM) | MIC Enterococcus faecalis (GC 4552) ([5]; strain GC 4552): 8 µg/mL (≈ 5.6 µM) | MIC Enterococcus faecalis (GC 4553) ([5]; strain GC 4553): 8 µg/mL (≈ 5.6 µM) | MIC Enterococcus faecalis (GC 4554) ([5]; strain GC 4554): 8 µg/mL (≈ 5.6 µM) | MIC Enterococcus faecium (GC 4556) ([5]; strain GC 4556): 4 µg/mL (≈ 2.8 µM) | MIC Enterococcus faecium (GC 4557) ([5]; strain GC 4557): 2 µg/mL (≈ 1.4 µM) | MIC Enterococcus avium (GC 4558) ([5]; strain GC 4558): 8 µg/mL (≈ 5.6 µM) | MIC Enterococcus faecalis (GC 6189) ([5]; strain GC 6189): 4 µg/mL (≈ 2.8 µM)

From patent US6914045B2, “Glycopeptide antibiotics” (Wyeth Holdings Corporation, priority 2001, dated 2005)
